Structures are written as SMILES. A value given as a limit tells only on which side of the number the result lay.

The source of these data is ChEMBL document CHEMBL3351609, “Pyrrolopyridines-quinazolines Inhibitors of PKR-Like ER Kinase” (ACS Med Chem Lett, 2015).

The target of experiment [1] is T1, Eukaryotic translation initiation factor 2-alpha kinase 3 (Homo sapiens, UniProt Q9NZJ5).
T1 sequence (Q9NZJ5 whole entry): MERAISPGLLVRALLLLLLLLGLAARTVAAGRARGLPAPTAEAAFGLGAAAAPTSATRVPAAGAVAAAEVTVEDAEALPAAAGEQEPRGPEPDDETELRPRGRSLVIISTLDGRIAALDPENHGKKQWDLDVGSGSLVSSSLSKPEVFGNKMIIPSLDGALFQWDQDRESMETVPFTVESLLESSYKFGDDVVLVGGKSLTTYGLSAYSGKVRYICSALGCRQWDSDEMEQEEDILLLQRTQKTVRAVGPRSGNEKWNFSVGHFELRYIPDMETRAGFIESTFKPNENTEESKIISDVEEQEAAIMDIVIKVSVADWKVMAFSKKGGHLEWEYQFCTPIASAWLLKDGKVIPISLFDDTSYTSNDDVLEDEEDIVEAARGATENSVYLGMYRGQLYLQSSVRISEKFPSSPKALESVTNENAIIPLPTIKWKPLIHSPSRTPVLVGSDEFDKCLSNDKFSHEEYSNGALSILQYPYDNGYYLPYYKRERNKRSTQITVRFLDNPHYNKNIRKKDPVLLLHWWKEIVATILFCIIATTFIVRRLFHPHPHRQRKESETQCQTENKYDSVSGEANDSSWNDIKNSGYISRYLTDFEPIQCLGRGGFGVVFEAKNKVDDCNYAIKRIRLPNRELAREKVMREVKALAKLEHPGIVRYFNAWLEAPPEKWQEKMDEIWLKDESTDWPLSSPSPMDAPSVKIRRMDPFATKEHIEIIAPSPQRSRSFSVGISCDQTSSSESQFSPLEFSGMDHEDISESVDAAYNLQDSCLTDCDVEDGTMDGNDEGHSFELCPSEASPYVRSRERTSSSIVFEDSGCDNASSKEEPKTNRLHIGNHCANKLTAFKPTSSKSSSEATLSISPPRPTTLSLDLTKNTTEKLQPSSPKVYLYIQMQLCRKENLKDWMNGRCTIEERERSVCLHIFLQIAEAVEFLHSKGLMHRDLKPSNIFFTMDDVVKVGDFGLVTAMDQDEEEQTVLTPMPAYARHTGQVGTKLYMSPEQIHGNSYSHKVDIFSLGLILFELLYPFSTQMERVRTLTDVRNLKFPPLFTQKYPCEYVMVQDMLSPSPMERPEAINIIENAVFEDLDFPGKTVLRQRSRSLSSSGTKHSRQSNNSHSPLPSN
Nature of the experiment: Inhibition of recombinant GST-tagged PERK (unknown origin) by LanthaScreen assay.

Experiment [2] concerns the target T1, Eukaryotic translation initiation factor 2-alpha kinase 3. Nature of the experiment: Inhibition of PERK (unknown origin) expressed in HEK293 cells assessed as inhibition of phosphorylation of GFP-eIF2 alpha by cell-based TR-FRET assay.

As for `COc1cc2ncnc(Nc3ccc4c(c3)CCN4C(=O)Cc3c(C)[nH]c4cc(F)ccc34)c2cc1OC`, the IC50 was 0.631 nM in experiment [1] and 25.1 nM in experiment [2].
Consider `COc1cc2ncnc(Nc3ccc4c(c3)CCN4C(=O)Cc3cc(F)ccc3F)c2cc1OC`, for which the half-inhibitory concentration (IC50) in experiment [1] is 0.398 nM; in experiment [2] it was 50.1 nM.
As for `COc1cc2ncnc(Nc3ccc4c(c3)CCN4C(=O)Cn3ccc4ccccc43)c2cc1OC`, the IC50 in experiment [2] is 316 nM.
On to `COc1cc2ncnc(Nc3ccc4c(c3)CCN4C(=O)Cc3c[nH]c4ccccc34)c2cc1OC`, for which the IC50 was 5.01 nM in experiment [1] and 501 nM in experiment [2].
With `COc1cc2ncnc(Nc3ccc4c(c3)CCN4C(=O)Cc3coc4ccccc34)c2cc1OC`, the IC50 in experiment [2] is > 31600 nM.
